Experimental data: patent US9765034B2, “5-halogenopyrazole biphenylcarboxamides” (BAYER CROPSCIENCE AG, priority 2012, dated 2017)

Assays:
Puccinia recondita = experiment: In vivo preventive test on Puccinia recondita (brown rust on wheat); conditions: wheat plants, preventive spray, 500 ppm, grading 12 days after contamination
Method: Example: In Vivo Preventive Test on Puccinia recondita (Brown Rust on Wheat) […] Wheat plants (“Scipion” variety), sown in starter cups on a 50/50 peat soil-pozzolana substrate and grown at 22° C., are treated at the 1-leaf stage (10 cm height) by spraying with the active ingredient prepared as described above. Plants, used as controls, are treated with the mixture of acetone/tween/DMSO/water not containing the active material. After 24 hours, the plants are contaminated by spraying the leaves with an aqueous suspension of Puccinia […] spores (100 000 spores per ml). […] Grading (% of efficacy) is carried out 12 days after the contamination, in comparison with the control plants. Under these conditions, good (at least 70%) or total protection is observed at a dose of 500 ppm with the following compounds: […]

[1] = test system: Fusarium nivale (var. majus); experiment: In vivo Fusarium nivale (var. majus) test (wheat)/preventive; conditions: preventive, 500 ppm of active ingredient, evaluated 5 days after inoculation
Method: (§1) Example: In Vivo Fusarium nivale (Var. Majus)-Test (Wheat)/Preventive Solvent: 49 parts by weight of N,N-dimethylacetamide Emulsifier: 1 part by weight of alkylaryl polyglycol ether To produce a suitable preparation of active compound, 1 part by weight of active compound or active compound combination is mixed with the stated amounts of solvent and emulsifier, and the concentrate is diluted with water to the desired concentration. To test for preventive activity, young plants are sprayed with the preparation of active compound or active compound combination at the stated rate of application. After the spray coating has been dried, the plants are slightly injured by using a sandblast and afterwards to they are sprayed with a conidia suspension of Fusarium nivale (var. majus).

Pyrenophora teres = experiment: In vivo preventive test on Pyrenophora teres (net blotch on barley); conditions: barley plants, preventive spray, 500 ppm, grading 14 days after contamination
Method: Example: In Vivo Preventive Test on Pyrenophora teres (Net Blotch on Barley) […] Barley plants (“Plaisant” variety), sown in starter cups on a 50/50 peat soil-pozzolana substrate and grown at 22° C., are treated at the 1-leaf stage (10 cm height) by spraying with the active ingredient prepared as described above. Plants, used as controls, are treated with the mixture of acetone/tween/DMSO/water not containing the active material. After 24 hours, the plants are contaminated by spraying the leaves with an aqueous suspension of Pyrenophora teres spores (12 000 spores per ml). The spores are collected from a 12-day-old culture. […] Grading (% of efficacy) is carried out 14 days after the contamination, in comparison with the control plants. Under these conditions, good (at least 70%) or total protection is observed at a dose of 500 ppm with the following compounds: […]

Sphaerotheca fuliginea = experiment: In vivo preventive test on Sphaerotheca fuliginea (powdery mildew on cucurbits); conditions: gherkin plants, preventive spray, 500 ppm, grading 12 days after contamination
Method: Example: In Vivo Preventive Test on Sphaerotheca fuliginea (Powdery Mildew on Cucurbits) […] Gherkin plants (“Vert petit de Paris” variety), sown in starter cups on a 50/50 peat soil-pozzolana substrate and grown at 24° C., are treated at the Z11 cotyledon stage by spraying with the active ingredient prepared as described above. Plants, used as controls, are treated with the mixture of acetone/tween/DMSO/water not containing the active material. After 24 hours, the plants are contaminated by spraying the cotyledons with an aqueous suspension of Sphaerotheca fuliginea spores (100 000 spores per ml). The spores are collected from infected plants. […] Grading (% of efficacy) is carried out 12 days after the contamination, in comparison with the control plants. Under these conditions, good (at least 70%) or total protection is observed at a dose of 500 ppm with the following compounds: […]

[2] = logP by HPLC on reversed phase columns (EEC directive 79/831 Annex V.A8); conditions: method [a]: LC-MS at pH 2.7, 0.1% formic acid in water / acetonitrile gradient 10% to 95%
Uromyces appendiculatus = experiment: In vivo preventive test on Uromyces appendiculatus (bean rust); conditions: bean plants, preventive spray, 500 ppm, grading 11 days after contamination
Method: Example: In Vivo Preventive Test on Uromyces appendiculatus (Bean Rust) […] Bean plants (“Saxa” variety), sown in starter cups on a 50/50 peat soil-pozzolana substrate and grown at 24° C., are treated at the 2-leaf stage (9 cm height) by spraying with the active ingredient prepared as described above. Plants, used as controls, are treated with the mixture of acetone/tween/DMSO/water not containing the active material. After 24 hours, the plants are contaminated by spraying the leaves with an aqueous suspension of Uromyces appendiculatus spores (150 000 spores per ml). […] Grading (% of efficacy) is carried out 11 days after the contamination, in comparison with the control plants. Under these conditions, good (at least 70%) or total protection is observed at a dose of 500 ppm with the following compounds: […]

Pyricularia oryzae = assay type: in vivo; conditions: rice plants, preventive spray, 500 ppm, grading 6 days after contamination
Phakopsora pachyrhizi = experiment: In vivo Phakopsora test (soybeans)/preventive; conditions: preventive, 100 ppm of active ingredient, evaluated 7 days after inoculation
Method: Example: In Vivo Phakopsora Test (Soybeans)/Preventive Solvent: 24.5 parts by weight of acetone • 24.5 parts by weight of dimethylacetamide Emulsifier: • 1 part by weight of alkylaryl polyglycol ether To produce a suitable preparation of active compound, 1 part by weight of active compound is mixed with the stated amounts of solvent and emulsifier, and the concentrate is diluted with water to the desired concentration. To test for preventive activity, young plants are sprayed with the preparation of active compound at the stated rate of application. After the spray coating has dried on, the plants are inoculated with an aqueous to spore suspension of the causal agent of soybean rust (Phakopsora pachyrhizi) and stay for 24 h without light in an incubation cabinet at approximately 24° C. and a relative atmospheric humidity of 95%.

Phytophthora infestans = assay type: in vivo; conditions: tomato plants, preventive spray, 500 ppm, grading 5 days after contamination
Septoria tritici = experiment: In vivo preventive test on Septoria tritici (leaf spot on wheat); conditions: wheat plants, preventive spray, 500 ppm, grading 24 days after contamination
Method: Example: In Vivo Preventive Test on Septoria tritici (Leaf Spot on Wheat) […] Wheat plants (“Scipion” variety), sown in starter cups on a 50/50 peat soil-pozzolana substrate and grown at 22° C., are treated at the 1-leaf stage (10 cm height) by spraying with the active ingredient prepared as described above. Plants, used as controls, are treated with the mixture of acetone/tween/DMSO/water not containing the active material. After 24 hours, the plants are contaminated by spraying the leaves with an aqueous suspension of cryopreserved Septoria tritici spores (500 000 spores per ml). […] Grading (% of efficacy) is carried out 24 days after the contamination, in comparison with the control plants. Under these conditions, good (at least 70%) or total protection is observed at a dose of 500 ppm with the following compounds: […]

[3] = test system: Blumeria graminis fsp. hordei; experiment: In vivo Blumeria test (barley)/preventive; conditions: preventive, 500 ppm of active ingredient, evaluated 7 days after inoculation
Method: as §1, with “Blumeria Test (Barley)/Preventive” for “Fusarium nivale (Var. Majus)-Test (Wheat)/Preventive”, “dusted” for “slightly injured by using a sandblast and afterwards to they are sprayed”, “spores” for “a conidia suspension”, “Blumeria graminis fsp. hordei.” for “Fusarium nivale (var. majus).”

Botrytis cinerea = experiment: In vivo preventive test on Botrytis cinerea (grey mould); conditions: gherkin plants, preventive spray, 500 ppm, grading 4 to 5 days after contamination
Method: Example: In Vivo Preventive Test on Botrytis cinerea (Grey Mould) […] Gherkin plants (“Vert petit de Paris” variety), sown in starter cups on a 50/50 peat soil-pozzolana substrate and grown at 24° C., are treated at the Z11 cotyledon stage by spraying with the active ingredient prepared as described above. Plants, used as controls, are treated with the mixture of acetone/tween/DMSO/water not containing the active material. After 24 hours, the plants are contaminated by spraying the cotyledons with an aqueous suspension of cryopreserved Botrytis cinerea spores (50 000 spores per ml). The spores are suspended in a nutrient solution composed of 10 g/L of PDB, 50 g/L of D-Fructose, 2 g/L of NH4NO3 and 1 g/L of KH2PO4. […] Grading (% of efficacy) is carried out 4 to 5 days after the contamination, in comparison with the control plants. Under these conditions, good (at least 70%) or total protection is observed at a dose of 500 ppm with the following compounds: […]

Leptosphaeria nodorum = experiment: In vivo Leptosphaeria nodorum test (wheat)/preventive; conditions: preventive, 500 ppm of active ingredient, evaluated 8 days after inoculation
Method: as §1, with “Leptosphaeria nodorum Test” for “Fusarium nivale (Var. Majus)-Test”, “are” for “are slightly injured by using a sandblast and afterwards to they are”, “spore” for “conidia”, “Leptosphaeria nodorum.” for “Fusarium nivale (var. majus).”

physchem = conditions: pH 2.7

Compound	Eff. % (Puccinia recondita)	Eff. % [1]	Eff. % (Pyrenophora teres)	Eff. % (Sphaerotheca fuliginea)	logP [2]	Eff. % (Uromyces appendiculatus)	Eff. % (Pyricularia oryzae)	Eff. % (Phakopsora pachyrhizi)	Eff. % (Phytophthora infestans)	Eff. % (Septoria tritici)	Eff. % [3]	Eff. % (Botrytis cinerea)	Eff. % (Leptosphaeria nodorum)	chromatographic logP (physchem)
CCON=C(c1ccc(-c2ccccc2NC(=O)c2c(C(F)F)nn(C)c2F)cc1)C(F)(F)F [Example 29]	97%	86%	97%	100%	4.46[a]	100%	83%	91%	–	–	–	–	–	–
C#CCON=Cc1ccc(-c2ccccc2NC(=O)c2c(C(F)F)nn(C)c2F)cc1 [Example 4]	100%	80%	100%	100%	3.55[a]	100%	80%	–	100%	95%	–	–	–	–
CON=Cc1ccc(-c2ccccc2NC(=O)c2c(C(F)F)nn(C)c2Cl)cc1 [Example 8]	100%	–	97%	100%	4.18[a]	100%	80%	–	–	100%	100%	73%	–	–
CCON=Cc1ccc(-c2ccccc2NC(=O)c2c(C(F)F)nn(C)c2F)cc1 [Example 7]	94%	–	100%	100%	3.87[a]	100%	90%	–	–	–	100%	85%	90%	–
CON=Cc1ccc(-c2ccccc2NC(=O)c2c(C(F)F)nn(C)c2F)cc1 [Example 9, 5-fluoro-3-(difluoromethyl)-N-{4′-[(methoxyimino)methyl]biphenyl-2-yl}-1-methyl-1H-pyrazole-4-carboxamide]	100%	–	79%	100%	–	100%	80%	–	–	80%	–	–	–	3.46
